Assay results: PubChem BioAssay AID2060624 (Molecular Pharmacology Branch, DTP, NCI, 2025)

System: 217524-143-R1-J4-PDC spheroids with HUVEC/MSC, viability
Test: Anticancer human tumor 217524-143-R1-J4-PDC patient-derived pancreatic carcinoma cell line growth inhibition [CLK]
Settings: for IC50: curve of first compound; for viability, T/C: stronger effect = lower value
In short: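 Multi-cell-type spheroids combined patient-derived tumor cells with HUVEC endothelial cells and human mesenchymal stem cells. Paired agents were dosed in half-log steps down from about clinical Cmax, or from 10 microM where Cmax was unknown.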

[1] = second compound 0.0316 µM, first compound 0.0316 µM
[2] = second compound 0.0316 µM, first compound 0.1 µM
[3] = second compound 0.0316 µM, first compound 0.316 µM
[4] = second compound 0.0316 µM, first compound 1 µM
[5] = second compound 0.0316 µM, first compound 3.16 µM
[6] = second compound 0.0316 µM, first compound 10 µM
[7] = second compound 0.1 µM, first compound 0.0316 µM
[8] = second compound 0.1 µM, first compound 0.1 µM
[9] = second compound 0.1 µM, first compound 0.316 µM
[10] = second compound 0.1 µM, first compound 1 µM
[11] = second compound 0.1 µM, first compound 3.16 µM
[12] = second compound 0.1 µM, first compound 10 µM
[13] = second compound 0.316 µM, first compound 0.0316 µM
[14] = second compound 0.316 µM, first compound 0.1 µM
[15] = second compound 0.316 µM, first compound 0.316 µM
[16] = second compound 0.316 µM, first compound 1 µM
[17] = second compound 0.316 µM, first compound 3.16 µM
[18] = second compound 0.316 µM, first compound 10 µM
[19] = second compound 1 µM, first compound 0.0316 µM
[20] = second compound 1 µM, first compound 0.1 µM
[21] = second compound 1 µM, first compound 0.316 µM
[22] = second compound 1 µM, first compound 1 µM
[23] = second compound 1 µM, first compound 3.16 µM
[24] = second compound 1 µM, first compound 10 µM
[25] = second compound 3.16 µM, first compound 0.0316 µM
[26] = second compound 3.16 µM, first compound 0.1 µM
[27] = second compound 3.16 µM, first compound 0.316 µM
[28] = second compound 3.16 µM, first compound 1 µM
[29] = second compound 3.16 µM, first compound 3.16 µM
[30] = second compound 3.16 µM, first compound 10 µM
[31] = second compound 10 µM, first compound 0.0316 µM
[32] = second compound 10 µM, first compound 0.1 µM
[33] = second compound 10 µM, first compound 0.316 µM
[34] = second compound 10 µM, first compound 1 µM
[35] = second compound 10 µM, first compound 3.16 µM
[36] = second compound 10 µM, first compound 10 µM
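Also: spheroids exposed to agents for seven days before reading.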
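For viability, T/C in this document: 100% = DMSO vehicle control viability.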

For `C#Cc1c(F)ccc2cc(O)cc(-c3ncc4c(N5CC6CCC(C5)N6)nc(OCC56CCCN5CC(F)C6)nc4c3F)c12` (centres undefined) + CNC(=O)c1ccc(Nc2nc(OC3CCCC3)c3c(-c4ccc5nc(C)oc5c4)c[nH]c3n2)c(OC)c1, which IC50 (second compound 0.0316 µM) is on record?
Its IC50 is over 10000 nM.

What about the IC50 (second compound 0.1 µM) of the same molecule?
Its IC50 is under 31.6 nM.

What about the IC50 (second compound 0.316 µM) of the same molecule?
Its IC50 is under 31.6 nM.

What about the IC50 (second compound 1 µM) of the same molecule?
Its IC50 is under 31.6 nM.

What about the IC50 (second compound 3.16 µM) of the same molecule?
Its IC50 is under 31.6 nM.

And the IC50 (second compound 10 µM)?
The IC50 was under 31.6 nM.

What about the viability, T/C [1] of the same molecule?
The viability, T/C was 84.3%.

And the viability, T/C [2]?
Its viability, T/C is 98.2%.

What about the viability, T/C [3] of the same molecule?
Its viability, T/C is 90.8%.

What about the viability, T/C [4] of the same molecule?
The viability, T/C was 101%.

And the viability, T/C [5]?
The viability, T/C was 89.4%.

What about the viability, T/C [6] of the same molecule?
Its viability, T/C is 69%.

What about the viability, T/C [7] of the same molecule?
The viability, T/C was 47.5%.

What about the viability, T/C [8] of the same molecule?
Its viability, T/C is 39.2%.

What about the viability, T/C [9] of the same molecule?
The viability, T/C was 53.6%.

What about the viability, T/C [10] of the same molecule?
The viability, T/C was 42.4%.

What about the viability, T/C [11] of the same molecule?
Its viability, T/C is 44.5%.

What about the viability, T/C [12] of the same molecule?
Its viability, T/C is 30.8%.

And the viability, T/C [13]?
Its viability, T/C is 38.5%.

And the viability, T/C [14]?
The viability, T/C was 50.3%.

And the viability, T/C [15]?
The viability, T/C was 38.2%.

What about the viability, T/C [16] of the same molecule?
The viability, T/C was 40.9%.

What about the viability, T/C [17] of the same molecule?
Its viability, T/C is 38.7%.

What about the viability, T/C [18] of the same molecule?
Its viability, T/C is 24.3%.

What about the viability, T/C [19] of the same molecule?
Its viability, T/C is 33.1%.

What about the viability, T/C [20] of the same molecule?
The viability, T/C was 30%.

What about the viability, T/C [21] of the same molecule?
Its viability, T/C is 26.1%.

And the viability, T/C [22]?
Its viability, T/C is 35.5%.

And the viability, T/C [23]?
Its viability, T/C is 24.5%.

What about the viability, T/C [24] of the same molecule?
Its viability, T/C is 18.9%.

What about the viability, T/C [25] of the same molecule?
Its viability, T/C is 29.1%.

What about the viability, T/C [26] of the same molecule?
Its viability, T/C is 29.5%.

What about the viability, T/C [27] of the same molecule?
Its viability, T/C is 32.6%.

And the viability, T/C [28]?
Its viability, T/C is 26.7%.

And the viability, T/C [29]?
Its viability, T/C is 26.2%.

What about the viability, T/C [30] of the same molecule?
Its viability, T/C is 19.4%.

What about the viability, T/C [31] of the same molecule?
Its viability, T/C is 26.3%.

And the viability, T/C [32]?
Its viability, T/C is 24.2%.

What about the viability, T/C [33] of the same molecule?
Its viability, T/C is 27.8%.

And the viability, T/C [34]?
The viability, T/C was 23.4%.

And the viability, T/C [35]?
Its viability, T/C is 24.9%.

What about the viability, T/C [36] of the same molecule?
Its viability, T/C is 19.7%.

What does the source list for `CC(CO)NC(=O)c1cc(-c2ccc(Cl)cc2)nn(-c2cnn(C)c2)c1=O` (centres undefined) + CNC(=O)c1ccc(Nc2nc(OC3CCCC3)c3c(-c4ccc5nc(C)oc5c4)c[nH]c3n2)c(OC)c1?
IC50 (second compound 0.0316 µM): > 10000 nM; IC50 (second compound 0.1 µM): < 31.6 nM; IC50 (second compound 0.316 µM): < 31.6 nM; IC50 (second compound 1 µM): < 31.6 nM; IC50 (second compound 3.16 µM): < 31.6 nM; IC50 (second compound 10 µM): < 31.6 nM; viability, T/C [1]: 101%; viability, T/C [2]: 81.4%; viability, T/C [3]: 86.5%; viability, T/C [4]: 105%; viability, T/C [5]: 106%; viability, T/C [6]: 84.2%; viability, T/C [7]: 44.8%; viability, T/C [8]: 42.2%; viability, T/C [9]: 46.1%; viability, T/C [10]: 51.3%; viability, T/C [11]: 47.4%; viability, T/C [12]: 43.5%; viability, T/C [13]: 48.2%; viability, T/C [14]: 39.8%; viability, T/C [15]: 44.8%; viability, T/C [16]: 40.1%; viability, T/C [17]: 38.9%; viability, T/C [18]: 38.7%; viability, T/C [19]: 26.2%; viability, T/C [20]: 30.1%; viability, T/C [21]: 26.2%; viability, T/C [22]: 32.7%; viability, T/C [23]: 28.3%; viability, T/C [24]: 25%; viability, T/C [25]: 33.1%; viability, T/C [26]: 26.2%; viability, T/C [27]: 32.4%; viability, T/C [28]: 31.8%; viability, T/C [29]: 28.8%; viability, T/C [30]: 20.9%; viability, T/C [31]: 31.3%; viability, T/C [32]: 25.7%; viability, T/C [33]: 24.1%; viability, T/C [34]: 24.4%; viability, T/C [35]: 24.7%; viability, T/C [36]: 20.6%
